Patent US20030235543A1, “Topical administration of pharmacologically active bases for skin lightening” (priority 2002, published 2003)
Where two headings read alike, the source gives them in different places.

Key:
[1] = cited from earlier work; for Alkalinity / base strength in words: aqueous solution
[2] = In vitro keratolysis study: release of protein from ground callus (BioRad protein assay); conditions: for Protein release compared with glycolic acid, other bases / water control: 10 minutes (Example 7); for Protein release compared with glycolic acid / water control: all time points (Example 6)
Protocol: An in vitro keratolysis study was performed to compare the capability of glycolic acid and a base for removing protein from stratum corneum. Adult foot callus was collected, grounded and the portion between 50-80 mesh was used. Glycolic acid and sodium hydroxide solutions (concentration=0.05 M) were prepared in distilled water. Ten mg of ground callus powder was place in a test tube. Four ml of a test chemical was added to the callus and the test tube was placed in a shaker and incubated in a water bath at 37° C. for a predetermined incubation time. The incubation time periods were 10 min., 40 min, 2 hours, 4 hours, 6 hours and 24 hours. Six samples of each base were tested a total of six times each at each of the aforementioned incubation time periods.
At the end of each incubation period, the test tube was removed from the shaker and the test tube was centrifuged. The solution was removed and filtered, and the protein in the solution was then determined using a BioRad® protein assay kit.

[3] = as above; conditions: incubation 40 minutes (Table 3)
[4] = cited from earlier work
[5] = 0.05 M solutions, incubation time 10 minutes (Table 2, Example 7)
[6] = 0.05 M solution, 37° C., incubation 10 min (Table 1)
[7] = 0.05 M solution, 37° C., incubation 40 min (Table 1)
[8] = 0.05 M solution, 37° C., incubation 2 hours (Table 1)
[9] = 0.05 M solution, 37° C., incubation 4 hours (Table 1)
[10] = 0.05 M solution, 37° C., incubation 6 hours (Table 1)
[11] = 0.05 M solution, 37° C., incubation 24 hours (Table 1)

Question: Which “Alkalinity / base strength in words” value [1] does the source give for O=B[O-].[Na+] [Sodium metaborate] here?
Answer: Strongly alkaline

Question: With N[C@@H](Cc1c[nH]c2ccccc12)C(=O)O [L-tryptophan] as the compound, how does the “Amount of Protein Released” value [2, 5] read?
Answer: 0.170 mg/4 ml

Question: For O.O.O.O.O.O.O.O.O.O.O.O.O=P([O-])([O-])O.[Na+].[Na+] [Sodium phosphate, dibasic, dodecahydrate], which “pH of Aqueous Solution (concentration)” value ([1]; concentration not given) is on record?
Answer: ˜9.5

Question: Which “pH of Aqueous Solution (concentration)” value ([1]; concentration not given) does the source give for O=P([O-])([O-])O.[Na+].[Na+] [Sodium phosphate, dibasic] here?
Answer: ˜9.5

Question: For O.O.O.O.O.O.O.O.O.O.O.O.O=P([O-])([O-])[O-].[Na+].[Na+].[Na+] [Sodium phosphate, tribasic dodecahydrate], which “pH of Aqueous Solution (concentration)” value ([1]; 0.1%) is on record?
Answer: 11.5

Question: And the “pH of Aqueous Solution (concentration)” value ([1]; 0.5%)?
Answer: 11.7

Question: And the “pH of Aqueous Solution (concentration)” value ([1]; 1% (1.0%))?
Answer: 11.9

Question: With O=C([O-])[O-].[K+].[K+] [Potassium carbonate] as the compound, how does the “Amount of Protein Released” value ([3]; 0.005% solution) read?
Answer: 0.068 mg/4 ml

Question: What about the “Amount of Protein Released” value ([3]; 0.01% solution) of the same compound?
Answer: 0.073 mg/4 ml

Question: Which “Amount of Protein Released” value [2, 6] does the source give for O=C(O)CO [Glycolic Acid, reference compound] here?
Answer: 0.093 mg/4 ml

Question: And the “Amount of Protein Released” value [2, 7]?
Answer: 0.175 mg/4 ml

Question: And the “Amount of Protein Released” value [2, 8]?
Answer: 0.126 mg/4 ml

Question: And the “Amount of Protein Released” value [2, 9]?
Answer: 0.219 mg/4 ml

Question: What about the “Amount of Protein Released” value [2, 10] of the same compound?
Answer: 0.089 mg/4 ml

Question: What about the “Amount of Protein Released” value [2, 11] of the same compound?
Answer: 0.173 mg/4 ml

Question: And the “Amount of Protein Released” value [2, 5]?
Answer: 0.187 mg/4 ml

Question: And the “Protein release compared with glycolic acid, other bases / water control” value ([2]; 0.05 M)?
Answer: did not show significant differences in comparison with water

Question: What about the “Protein release compared with glycolic acid / water control” value ([2]; 0.05 M) of the same compound?
Answer: did not show statistical differences in comparison with water

Question: For NC1CCCCC1 [Cyclohexylamine], which “Alkalinity / base strength in words” value [1] is on record?
Answer: Strong base

Question: With N=C(N)NCCC[C@H](N)C(=O)O [Arginine] as the compound, how does the “Amount of Protein Released” value [2, 5] read?
Answer: 0.153 mg/4 ml

Question: Which “Alkalinity / base strength in words” value [1] does the source give for NCCN [Ethylenediamine] here?
Answer: Strong base

Question: What about the “Amount of Protein Released” value ([3]; 0.005% solution) of the same compound?
Answer: 0.059 mg/4 ml

Question: And the “Amount of Protein Released” value ([3]; 0.01% solution)?
Answer: 0.080 mg/4 ml

Question: For O=P([O-])([O-])O.[Na+].[Na+] [Sodium phosphate, dibasic, anhydrous], which “pH of Aqueous Solution (concentration)” value ([1]; 1% (1.0%)) is on record?
Answer: 9.1 (1%)

Question: With C1CCNCC1 [Piperidine] as the compound, how does the “Alkalinity / base strength in words” value [1] read?
Answer: Strong base

Question: What about the “Amount of Protein Released” value ([3]; 0.005% solution) of the same compound?
Answer: 0.066 mg/4 ml

Question: And the “Amount of Protein Released” value ([3]; 0.01% solution)?
Answer: 0.071 mg/4 ml

Question: With O.O.O=P([O-])([O-])O.[Na+].[Na+] [Sodium phosphate, dibasic, dihydrate] as the compound, how does the “pH of Aqueous Solution (concentration)” value ([1]; concentration not given) read?
Answer: ˜9.5

Question: With CN(C)C [Trimethylamine] as the compound, how does the “Alkalinity / base strength in words” value [1] read?
Answer: Strong base

Question: Which “Amount of Protein Released” value [2, 5] does the source give for C[N+](C)(C)CC(=O)O [Betaine] here?
Answer: 0.144 mg/4 ml

Question: With N [Ammonium hydroxide] as the compound, how does the “pH of Aqueous Solution (concentration)” value ([1]; 0.001 N) read?
Answer: 10.27

Question: And the “pH of Aqueous Solution (concentration)” value ([1]; 1 N)?
Answer: 11.27

Question: With [O]=[Mg] [Magnesium oxide] as the compound, how does the “pH of Aqueous Solution (concentration)” value ([1]; saturated solution in water) read?
Answer: 10.3 (saturated aqueous solution)

Question: For CC(=O)[O-].[Na+] [Sodium acetate, anhydrous], which “pH of Aqueous Solution (concentration)” value ([1]; 0.1 N) is on record?
Answer: ˜8.9 (0.1 N)

Question: Which “Amount of Protein Released” value [2, 5] does the source give for OCCNCCO [Diethanolamine] here?
Answer: 0.144 mg/4 ml

Question: And the “pH of Aqueous Solution (concentration)” value ([1]; 0.1 N)?
Answer: 11.0 (0.1 N)

Question: For NCCc1ccccc1 [Phenethylamine], which “Alkalinity / base strength in words” value [1] is on record?
Answer: Strong base

Question: For O=P([O-])([O-])[O-].[Na+].[Na+].[Na+] [Sodium phosphate, tribasic], which “Amount of Protein Released” value ([3]; 0.005% solution) is on record?
Answer: 0.048 mg/4 ml

Question: And the “Amount of Protein Released” value ([3]; 0.01% solution)?
Answer: 0.050 mg/4 ml

Question: Which results are given for [Na+].[OH-] [NaOH, Sodium hydroxide]?
Answer: Protein released at 6 hours and 24 hours compared with 10 minutes, 40 minutes, 2 hours and 4 hours ([2]; 0.05 M): significantly higher; Amount of Protein Released [2, 6]: 0.419 mg/4 ml; Amount of Protein Released [2, 7]: 0.739 mg/4 ml; Amount of Protein Released [2, 8]: 0.899 mg/4 ml; Amount of Protein Released [2, 9]: 1.003 mg/4 ml; Amount of Protein Released [2, 10]: 4.853 mg/4 ml; Amount of Protein Released [2, 11]: 5.148 mg/4 ml; Amount of Protein Released [2, 5]: 0.544 mg/4 ml; Protein release compared with glycolic acid, other bases / water control ([2]; 0.05 M): released more protein; Protein release compared with glycolic acid / water control ([2]; 0.05 M): released more protein; pH of Aqueous Solution (concentration) ([1]; 0.05%): 12; pH of Aqueous Solution (concentration) ([1]; 0.5%): 13; pH of Aqueous Solution (concentration) ([1]; 5%): 14; Amount of Protein Released ([3]; 0.005% solution): 0.059 mg/4 ml; Amount of Protein Released ([3]; 0.01% solution): 0.074 mg/4 ml

Question: Which “pH of Aqueous Solution (concentration)” value ([1]; 0.1 m) does the source give for CC(C)(N)CO [2-amino-2-methyl-1-propanol] here?
Answer: 11.3 (0.1 m)

Question: With C1CCNC1 [Pyrrolidine] as the compound, how does the “Alkalinity / base strength in words” value [1] read?
Answer: Strong base

Question: What about the “Amount of Protein Released” value ([3]; 0.005% solution) of the same compound?
Answer: 0.060 mg/4 ml

Question: What about the “Amount of Protein Released” value ([3]; 0.01% solution) of the same compound?
Answer: 0.066 mg/4 ml

Question: Which “pH of Aqueous Solution (concentration)” value ([1]; concentration not given) does the source give for O.O.O.O.O.O.O.O=P([O-])([O-])O.[Na+].[Na+] [Sodium phosphate, dibasic, heptahydrate] here?
Answer: ˜9.5

Question: With N.N.O=P(O)(O)O [Ammonium phosphate, dibasic] as the compound, how does the “pH of Aqueous Solution (concentration)” value ([1]; concentration not given) read?
Answer: ˜8

Question: With O=P([O-])([O-])O.[K+].[K+] [Potassium phosphate, dibasic] as the compound, how does the “Alkalinity / base strength in words” value [1] read?
Answer: Aqueous solution is slightly alkaline

Question: For O=C([O-])[O-].[Na+].[Na+] [Sodium carbonate anhydrous], which “pH of Aqueous Solution (concentration)” value ([1]; concentration not given) is on record?
Answer: ˜11.6

Question: With CC(N)(CO)CO [2-amino-2-methyl-1,3-propanediol] as the compound, how does the “pH of Aqueous Solution (concentration)” value ([1]; 0.1 m) read?
Answer: 10.8 (0.1 m)

Question: With CCC(N)CO (centres unmarked) [2-amino-1-butanol] as the compound, how does the “Amount of Protein Released” value [2, 5] read?
Answer: 0.174 mg/4 ml

Question: Which “Solubility in water” value [4] does the source give for [O]=[Ca] [Calcium oxide] here?
Answer: Soluble in water, Form Ca(OH)2

Question: With CC(=O)[O-].[K+] [Potassium acetate] as the compound, how does the “Amount of Protein Released” value ([3]; 0.005% solution) read?
Answer: 0.060 mg/4 ml

Question: And the “Amount of Protein Released” value ([3]; 0.01% solution)?
Answer: 0.064 mg/4 ml

Question: For O=C([O-])CC(O)(CC(=O)[O-])C(=O)[O-].[K+].[K+].[K+] [Potassium citrate], which “pH of Aqueous Solution (concentration)” value ([1]; concentration not given) is on record?
Answer: ˜8.5
